Data on 61 compounds can be found in ChEMBL document CHEMBL1141299, “Hologram QSAR model for the prediction of human oral bioavailability” (Bioorg Med Chem, 2007).

As a reminder, the bioavailability is the share of a dose that reaches the circulation, judged against a reference dose that is usually intravenous. The low end stands for little systemic uptake, the high end for much systemic uptake.

Each structure is given as a SMILES string.

A short description of the first series: Oral bioavailability in human. Particulars: in vivo.
Consider `C[C@H](NC(C)(C)C)C(=O)c1cccc(Cl)c1`, for which the bioavailability was found to be 70%. Same read-out and setting: the value for `CN1CCN(C(=O)O[C@@H]2c3nccnc3C(=O)N2c2ccc(Cl)cn2)CC1` was 80%; that for `C[C@@H](N)Cc1cccc(C(F)(F)F)c1` was 85%; that for `N[C@H](Cc1ccc(N(CCCl)CCCl)cc1)C(=O)O` was 71%. On the same count and under the same terms, the value for `C[C@@H](NC(C)(C)C)C(=O)c1cccc(Cl)c1` was 70%; that for `COc1ccc([C@H](CN(C)C)C2(O)CCCCC2)cc1` was 45%. Turning to `O=C(O)[C@H]1N=C(c2ccccc2)c2cc(Cl)ccc2NC1=O`, the bioavailability is 91%. Compound `CCN(CC)C(=O)[C@]1(c2ccccc2)C[C@@H]1CN` had a bioavailability of 84%.

Compound `O=C(O)[C@@H]1N=C(c2ccccc2)c2cc(Cl)ccc2NC1=O` returned a bioavailability of 91%. The compound `NS(=O)(=O)c1cc([C@@]2(O)NC(=O)c3ccccc32)ccc1Cl` registered a bioavailability of 64%.

For the compound `N[C@@H](Cc1ccc(N(CCCl)CCCl)cc1)C(=O)O`, the bioavailability worked out at 71%. `CC(C)=CCN1CC[C@]2(C)c3cc(O)ccc3C[C@H]1[C@H]2C` [(+)-PENTAZOCINE] registered a bioavailability of 18%. The same measure, in the same setting: the value for `NS(=O)(=O)c1cc([C@]2(O)NC(=O)c3ccccc32)ccc1Cl` [(R)-CHLORTHALIDONE] was 64%. The same measure, in the same setting: the value for `CN(C)CCC[C@]1(c2ccc(F)cc2)OCc2cc(C#N)ccc21` [(R)-CITALOPRAM] was 80%; that for `COc1c(N2CCN[C@H](C)C2)c(F)cc2c(=O)c(C(=O)O)cn(C3CC3)c12` [(R)-GATIFLOXACIN] was 96%.

With `O=C1Nc2ccc(Cl)cc2C(c2ccccc2Cl)=N[C@@H]1O` [(R)-LORAZEPAM], the bioavailability is 93%. For the compound `CN1C(=O)[C@@H](O)N=C(c2ccccc2Cl)c2cc(Cl)ccc21` [(R)-LORMETAZEPAM], the bioavailability amounted to 75%. `CC[C@@]1(c2ccccc2)C(=O)NC(=O)N(C)C1=O` [(R)-METHYLPHENOBARBITAL] registered a bioavailability of 73%.

The series is the same for the next values; noted with them: in vivo, F.
In the case of `CCOc1nc2cccc(C(=O)O)c2n1Cc1ccc(-c2ccccc2-c2nnn[nH]2)cc1`, the bioavailability came out at 15%. Same read-out and setting: the figure for `COc1ccc(CCN(C)CCCC2(c3ccc(OC)c(OC)c3)S(=O)(=O)CCCS2(=O)=O)cc1OC` is 22%. On the same count and under the same terms, the value for `CNS(=O)(=O)CCc1ccc2[nH]cc(C3CCN(C)CC3)c2c1` was 67.5%; that for `CN1CCC[C@@H]1Cc1c[nH]c2ccc(CCS(=O)(=O)c3ccccc3)cc12` was 62.5%. On the same count and under the same terms, the figure for `CCCc1nc(C)c2c(=O)[nH]c(-c3cc(S(=O)(=O)N4CCN(CC)CC4)ccc3OCC)nn12` is 15%. The compound `CCCc1nn(C)c2c(=O)[nH]c(-c3cc(S(=O)(=O)N4CCN(C)CC4)ccc3OCC)nc12` gave a bioavailability of 40%. Still for that read-out and setting: the figure for `COc1cc(N[C@@H](C)CCCN)c2ncccc2c1` is 96%. Still for that read-out and setting: the value for `CCN(CC)CCC[C@H](C)Nc1ccnc2cc(Cl)ccc12` was 80%. In the case of `CC(C)COC[C@H](CN(Cc1ccccc1)c1ccccc1)N1CCCC1`, the bioavailability worked out at 60%. The same measure, in the same setting: the figure for `O=C(NC[C@@H]1CCCCN1)c1cc(OCC(F)(F)F)ccc1OCC(F)(F)F` is 95%; for `C[C@H](N/C(=N/c1ccncc1)NC#N)C(C)(C)C` it is 57%. `COc1cc(N[C@H](C)CCCN)c2ncccc2c1` had a bioavailability of 96%. `CC(C)NC[C@H](O)c1ccc(NS(C)(=O)=O)cc1` gave a bioavailability of 60%.

Turning to `CN1CCN2c3ccccc3Cc3ccccc3[C@H]2C1`, the bioavailability is 20%. Still for that read-out and setting: the value for `CC(C)NC[C@@H](O)COc1ccc(OCCOCC2CC2)cc1` was 100%; that for `C[C@@H](CN1CCN(CCOCCO)CC1)CN1c2ccccc2Sc2ccccc21` was 10%; that for `COc1ccc(CCN(C)CCC[C@@](C#N)(c2ccc(OC)c(OC)c2)C(C)C)cc1OC` was 13.5%. With `C[C@@H](N/C(=N/c1ccncc1)NC#N)C(C)(C)C`, the bioavailability is 57%. The same measure, in the same setting: the value for `C[C@H](CN1CCN(CCOCCO)CC1)CN1c2ccccc2Sc2ccccc21` was 10%. Same read-out and setting: the figure for `CO/N=C1\CN(c2nc3c(cc2F)c(=O)c(C(=O)O)cn3C2CC2)C[C@@H]1CN` is 71%; for `CC(C)NC[C@H](O)COc1ccc(OCCOCC2CC2)cc1` it is 100%; for `CC1=CC[C@H](C(C)(C)O)C[C@H]1O` it is 72%.

Compound `CC(C)COC[C@@H](CN(Cc1ccccc1)c1ccccc1)N1CCCC1` had a bioavailability of 60%.

`CN1Cc2c(N)cccc2[C@@H](c2ccccc2)C1`: the bioavailability is 27%. The same measure, in the same setting: the figure for `CN1Cc2c(N)cccc2[C@H](c2ccccc2)C1` is 27%. The same measure, in the same setting: the figure for `Nc1nc(N)c2nc(-c3ccccc3)c(N)nc2n1` is 51%. Regarding `CCOC(=O)C(CCc1ccccc1)N[C@@H](C)C(=O)N1CCC[C@H]1C(=O)O` (single isomer, unassigned), the bioavailability is 41%. As for `Nc1nc(NC2CC2)c2ncn([C@H]3C=C[C@@H](CO)C3)c2n1` (single isomer, unassigned) [ABACAVIR], the bioavailability was found to be 86%. On the same count and under the same terms, the value for `C[C@@H](OC1OCCN(Cc2n[nH]c(=O)[nH]2)C1c1ccc(F)cc1)c1cc(C(F)(F)F)cc(C(F)(F)F)c1` (single isomer, unassigned) [APREPITANT] was 62.5%; that for `C=C1/C(=C\C=C2/CCC[C@]3(C)[C@@H](C(C)CCCC(C)(C)O)CC[C@@H]23)C[C@@H](O)C[C@@H]1O` (single isomer, unassigned) [CALCITRIOL] was 61%. The compound `CCCNC1CCc2nc(N)sc2C1` (single isomer, unassigned) [PRAMIPEXOLE] had a bioavailability of 90%. As to `Cc1ccsc1C(=CCCN1CCCC(C(=O)O)C1)c1sccc1C` (single isomer, unassigned) [TIAGABINE], the bioavailability was 90%.

The compound `CCc1cccc2cc([C@H](O)CNC(C)(C)C)oc12` [(R)-BUFURALOL] gave a bioavailability of 46%. `CCN(CC)CCC[C@@H](C)Nc1ccnc2cc(Cl)ccc12` [(R)-CHLOROQUINE] displayed a bioavailability of 80%. Still for that read-out and setting: the figure for `CCN1C[C@H](CCN2CCOCC2)C(c2ccccc2)(c2ccccc2)C1=O` [(R)-DOXAPRAM] is 61%; for `CCOC(=O)C1=C(C)NC(C)=C(C(=O)OC)[C@H]1c1cccc(Cl)c1Cl` [(R)-FELODIPINE] it is 15%. On the same count and under the same terms, the figure for `CC(C)Cc1ccc([C@@H](C)C(=O)O)cc1` [(R)-IBUPROPHEN] is 80%; for `COC(=O)C1=C(C)NC(C)=C(C(=O)OC(C)C)[C@@H]1c1cccc2nonc12` [(R)-ISRADIPINE] it is 19.5%; for `Cc1cc2c(OC[C@H](O)CNC(C)C)cccc2[nH]1` [(R)-MEPINDOLOL] it is 82%. Turning to `Cc1cccc(C)c1OC[C@@H](C)N` [(R)-MEXILETINE], the bioavailability was 87%. Same read-out and setting: the value for `COc1ccc(OC)c([C@@H](O)CNC(=O)CN)c1` [(R)-MIDODRINE] was 93%; that for `CCOC(=O)C1=C(C)NC(C)=C(C(=O)OC)[C@H]1c1cccc([N+](=O)[O-])c1` [(R)-NITRENDIPINE] was 16%. Same read-out and setting: the figure for `Cc1nccn1C[C@H]1CCc2c(c3ccccc3n2C)C1=O` [(R)-ONDANSETRON] is 62%.
